In patent US11261183B2, “Sulfoximine glycosidase inhibitors” (Asceneuron SA, priority 2016, dated 2022):

Legend:
[1] = biological target: Human O-GlcNAcase (His-Tagged hOGA) (Homo sapiens (Human), UniProt O60502); experiment: Human O-GlcNAcase enzyme inhibition assay; format: biochemical; settings: His-Tagged hOGA 20 nM, FL-GlcNAc 10 μM, 60 min, room temperature, pH 6.5; read-out: Enzymatic OGA IC50
Procedure: Example B01: Human O-GlcNAcase enzyme inhibition assay
5 μl of the appropriate concentration of a solution of inhibitor in McIlvaine's Buffer (pH 6.5) in 2% DMSO (for a dose response curve calculation) is added into each well of a 384-well plate (Greiner, 781900). Then, 20 nM of His-Tagged hOGA and 10 μM of FL-GlcNAc (Fluorescein mono-beta-D-(2-deoxy-2-N-acetyl) glucopyranoside; Marker Gene Technologies Inc, M1485) were added to the 384-well plate for a final volume of 20 μl. After incubation for 60 min at room temperature, the reaction was terminated by the addition of 10 μL of stop buffer (200 mM glycine, pH 10.75).

[2] = Protein binding in mice plasma using Rapid Equilibrium Dialysis; format: in vitro ADME, CD1 mice; settings: male, CD1, mouse, plasma, pH 7.4, CD1 mouse plasma, 37° C.
Procedure: Example B04: Protein binding in mice plasma using Rapid Equilibrium Dialysis
• CD1 Mice Plasma: pooled male, K2-EDTA ([…]2, Bioreclammation, USA • Phosphate Buffered Saline (1×PBS), pH 7.4, 100 mM (Sigma, Cat No. P4417) • RED inserts (Pierce, Cat No. 9006, 8 kDa MWCO) • Sample Analysis: LC-MS/MS Methods • Preparation of DMSO Stock Solution
From 20 mM DMSO stock solutions of reference and test compounds, 1 mM DMSO intermediate working solutions are prepared. From 1 mM intermediate working solutions, 100 μM DMSO working solutions are prepared. • Sample Preparation Procedure:
Selected plasma is brought from −20° C. to 37° C. using water bath before its use. Test solution is prepared by adding the DMSO working solution of the reference or test compound (2 μL; 100 μM) to the selected plasma (198 μL). Spiked plasma (200 μl) is transferred to sample compartment of RED insert placed in the teflon plate. 350 μl of 1×PBS is added in the buffer compartment of RED insert. The teflon plate is covered with sealing mat and agitated at 37° C. for 5 hours at 500 RPM in a Thermomixer. After incubation time, an aliquot of plasma (50 μl) from sample compartment is mixed with blank 1×PBS (50 μl). Similarly, an aliquot of buffer (50 μl) from buffer compartment is mixed with blank plasma (50 μl). Quenching solution (200 μL, acetonitrile containing internal standard tolbutamide (0.5 μg/mL)) is added and the resulting solutions are mixed using a vortex mixer and centrifuged (Eppendorf 5415, 13792 g). Supernatants are analyzed using a Mass Spectrometer. The sample (supernatant fraction, 5 μL) is injected into the LC-MS/MS instrument. • Chromatographic Conditions: LC-MS/MS: API 4000 LC-MS/MS Software: Analyst Version 1.6.1 Column Phenomenex Synergy 30*4.6*5μ Column Oven: 40° C. Mode: ESI Positive Injection volume: 5 μl Flow Rate: […] Buffer: 0.1% Formic acid in Water Method: Isocratic Method/Gradient Composition: A) 0.1% Formic acid in Water B) 0.1% Formic acid in Methanol
After the concentration of free drug and total drug has been determined by LCMS/MS, percent plasma protein binding can be calculated as follows:
[formula] Following this protocol, % fraction unbound in plasma from different species can be also measured.

Chain of Human O-GlcNAcase (His-Tagged hOGA) (O60502 whole entry): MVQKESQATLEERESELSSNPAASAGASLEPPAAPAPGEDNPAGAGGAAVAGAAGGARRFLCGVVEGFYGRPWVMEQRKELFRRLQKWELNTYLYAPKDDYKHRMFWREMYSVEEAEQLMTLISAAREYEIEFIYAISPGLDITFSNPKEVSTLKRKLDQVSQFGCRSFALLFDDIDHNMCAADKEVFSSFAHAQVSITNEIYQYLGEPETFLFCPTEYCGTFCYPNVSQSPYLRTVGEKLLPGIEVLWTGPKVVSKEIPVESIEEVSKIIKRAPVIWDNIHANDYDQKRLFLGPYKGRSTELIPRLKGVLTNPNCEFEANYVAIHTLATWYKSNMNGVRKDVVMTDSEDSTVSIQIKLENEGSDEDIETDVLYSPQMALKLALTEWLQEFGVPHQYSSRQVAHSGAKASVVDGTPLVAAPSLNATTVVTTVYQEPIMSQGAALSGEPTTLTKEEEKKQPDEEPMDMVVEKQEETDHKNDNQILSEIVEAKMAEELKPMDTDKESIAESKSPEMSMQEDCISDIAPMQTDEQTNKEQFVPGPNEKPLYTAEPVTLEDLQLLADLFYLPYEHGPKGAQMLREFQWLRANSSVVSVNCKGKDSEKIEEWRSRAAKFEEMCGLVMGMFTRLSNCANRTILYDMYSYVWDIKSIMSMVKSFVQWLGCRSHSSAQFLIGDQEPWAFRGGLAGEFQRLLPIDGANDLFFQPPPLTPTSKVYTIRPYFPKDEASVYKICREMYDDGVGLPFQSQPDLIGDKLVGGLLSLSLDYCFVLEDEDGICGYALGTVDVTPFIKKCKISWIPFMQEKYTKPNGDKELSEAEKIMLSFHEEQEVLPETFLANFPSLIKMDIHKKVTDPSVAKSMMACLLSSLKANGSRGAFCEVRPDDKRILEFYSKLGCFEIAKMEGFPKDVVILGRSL

Compound | IC50 [1] [nM] | fraction unbound at 5 h, 1 µM [2]
CC(c1ccc2scnc2c1)N1CCN(c2ncc(S(C)(=N)=O)cn2)CC1 (single isomer, unassigned) [Example 34, (2-(4-((S)-1-(benzo[d]thiazol-5-yl)ethyl)piperazin-1-yl)pyrimidin-5-yl)(imino)(methyl)-λ^6-sulfanone or (2-(4-((R)-1-(benzo[d]thiazol-5-yl)ethyl)piperazin-1-yl)pyrimidin-5-yl)(imino)(methyl)-λ^6-sulfanone] | < 50 | 0.257
CC(c1ccc2scnc2c1)N1CCN(c2ncc(S(C)(=N)=O)cn2)CC1 (single isomer, unassigned) [Example 41] | 1000 to 10000 | 
CC(c1ccc2c(c1)OCC2)N1CCN(c2ncc(S(C)(=N)=O)cn2)CC1 (single isomer, unassigned) [Example 16, (2-(4-((S)-1-(2,3-dihydrobenzofuran-6-yl)ethyl)piperazin-1-yl)pyrimidin-5-yl)(imino)(methyl)-λ^6-sulfanone or (2-(4-((R)-1-(2,3-dihydrobenzofuran-6-yl)ethyl)piperazin-1-yl)pyrimidin-5-yl)(imino)(methyl)-λ^6-sulfanone] | < 50 | 
CN=S(C)(=O)c1ccc(N2CCN(C(C)c3ccc4c(c3)OCC4)CC2)nc1 (single isomer, unassigned) [Example 20, (6-(4-((S)-1-(2,3-dihydrobenzofuran-6-yl)ethyl)piperazin-1-yl)pyridin-3-yl)(methyl)(methylimino)-λ^6-sulfanone or (6-(4-((R)-1-(2,3-dihydrobenzofuran-6-yl)ethyl)piperazin-1-yl)pyridin-3-yl)(methyl)(methylimino)-λ^6-sulfanone] | < 50 | 0.223
CCCS(=N)(=O)c1cnc(N2CCN(C(C)c3ccc4c(c3)OCC4)CC2)nc1 (racemic) [Example 4, (2-(4-(1-(2,3-dihydrobenzofuran-6-yl)ethyl)piperazin-1-yl)pyrimidin-5-yl)(imino)(propyl)-λ^6-sulfanone] | < 50 | 0.142
CC(c1ccc2c(c1)OCC2)N1CCN(c2ncc(C(=O)N=S(C)(C)=O)cn2)CC1 (racemic) [Example 10, 2-(4-(1-(2,3-dihydrobenzofuran-6-yl)ethyl)piperazin-1-yl)-N-(dimethyl(oxo)-λ^6-sulfanylidene)pyrimidine-5-carboxamide] | < 50 | 0.139
Cc1nc2cc(C(C)N3CCN(c4ncc(S(C)(=N)=O)cn4)CC3)ccc2s1 (single isomer, unassigned) [Example 52] | 200 to 1000 | 
CC(c1ccc2scnc2c1)N1CCN(c2ncc(C(=O)N=S(C)(C)=O)cn2)CC1 (racemic) [Example 32, 2-(4-(1-(benzo[d]thiazol-5-yl)ethyl)piperazin-1-yl)-N-(dimethyl(oxo)-λ^6-sulfanylidene)pyrimidine-5-carboxamide] | < 50 | 0.0535
CC(c1ccc2c(c1)OCC2)N1CCN(c2ccc(S(C)(=N)=O)cc2)CC1 (racemic) [Example 11, (4-(4-(1-(2,3-dihydrobenzofuran-6-yl)ethyl)piperazin-1-yl)phenyl)(imino)(methyl)-λ^6-sulfanone] | < 50 | 0.21
CCN=S(C)(=O)c1cnc(N2CCN(C(C)c3ccc4c(c3)OCC4)CC2)nc1 (single isomer, unassigned) [Example 18] | < 50 | 
CC1Cc2ccc(C(C)N3CCN(c4ncc(S(C)(=N)=O)cn4)CC3)cc2O1 (racemic) [Example 2, Imino(methyl)(2-(4-(1-(2-methyl-2,3-dihydrobenzofuran-6-yl)ethyl)piperazin-1-yl)pyrimidin-5-yl)-λ^6-sulfanone] |  | 0.222
CC(c1ccc2nccnc2c1)N1CCN(c2ncc(S(C)(=N)=O)cn2)CC1 (racemic) [Example 57, imino(methyl)(2-(4-(1-(quinoxalin-6-yl)ethyl)piperazin-1-yl)pyrimidin-5-yl)-λ^6-sulfanone] | 50 to 200 | 
CC(C)N=S(C)(=O)c1cnc(N2CCN(C(C)c3ccc4c(c3)OCC4)CC2)nc1 (single isomer, unassigned) [Example 19] | < 50 | 
CC(c1ccc2c(c1)OCC2)N1CCN(c2ncc(S(C)(=N)=O)cn2)CC1 (single isomer, unassigned) [Example 13] | 200 to 1000 | 
CN=S(C)(=O)c1ccc(N2CCN(C(C)c3ccc4scnc4c3)CC2)nc1 (racemic) [Example 30, (6-(4-(1-(benzo[d]thiazol-5-yl)ethyl)piperazin-1-yl)pyridin-3-yl)(methyl)(methylimino)-λ^6-sulfanone] | 50 to 200 | 
CC(c1ccc2scnc2c1)N1CCN(c2ncc(S(C)(=N)=O)cn2)CC1 (single isomer, unassigned) [Example 38, (R)-(2-(4-(1-(benzo[d]thiazol-5-yl)ethyl)piperazin-1-yl)pyrimidin-5-yl)(imino)(methyl)-λ^6-sulfanone or (S)-(2-(4-(1-(benzo[d]thiazol-5-yl)ethyl)piperazin-1-yl)pyrimidin-5-yl)(imino)(methyl)-λ^6-sulfanone] | 50 to 200 | 
CCCS(=N)(=O)c1cnc(N2CCN(C(C)c3ccc4sc(C)nc4c3)CC2)nc1 (racemic) [Example 44, Imino(2-(4-(1-(2-methylbenzo[d]thiazol-5-yl)ethyl)piperazin-1-yl)pyrimidin-5-yl)(propyl)-λ^6-sulfanone] | < 50 | 
Cc1nc2cc(C(C)N3CCN(c4ncc(S(C)(=N)=O)cn4)CC3)ccc2s1 (single isomer, unassigned) [Example 54] | 1000 to 10000 | 
CCS(=N)(=O)c1cnc(N2CCN(C(C)c3ccc4sc(C)nc4c3)CC2)nc1 (racemic) [Example 43, ethyl(imino)(2-(4-(1-(2-methylbenzo[d]thiazol-5-yl)ethyl)piperazin-1-yl)pyrimidin-5-yl)-λ^6-sulfanone] | < 50 | 
CC(C)N=S(C)(=O)c1cnc(N2CCN(C(C)c3ccc4scnc4c3)CC2)nc1 (racemic) [Example 28, (2-(4-(1-(benzo[d]thiazol-5-yl)ethyl)piperazin-1-yl)pyrimidin-5-yl)(isopropylimino)(methyl)-λ^6-sulfanone] | 50 to 200 | 
CC(c1ccc2scnc2c1)N1CCN(c2ncc(S(C)(=N)=O)cn2)CC1 (single isomer, unassigned) [Example 39, (R)-(2-(4-(1-(benzo[d]thiazol-5-yl)ethyl)piperazin-1-yl)pyrimidin-5-yl)(imino)(methyl)-λ^6-sulfanone or (S)-(2-(4-(1-(benzo[d]thiazol-5-yl)ethyl)piperazin-1-yl)pyrimidin-5-yl)(imino)(methyl)-λ^6-sulfanone] | < 50 | 
CC(c1ccc2scnc2c1)N1CCN(c2ncc(S(C)(=N)=O)cn2)CC1 (single isomer, unassigned) [Example 40] | 1000 to 10000 | 
CC(c1ccc2c(c1)OCC2)N1CCN(c2ncnc3c2CS(=N)(=O)C3)CC1 (centres unmarked) [Example 60, 4-(4-(1-(2,3-dihydrobenzofuran-6-yl)ethyl)piperazin-1-yl)-6-imino-6,7-dihydro-5H-6δ^4-thieno[3,4-d]pyrimidine 6-oxide] |  | 0.0779
Cc1nc2cc(C(C)N3CCN(c4ccc(S(C)(=N)=O)cc4)CC3)ccc2s1 (racemic) [Example 50, imino(methyl)(4-(4-(1-(2-methylbenzo[d]thiazol-5-yl)ethyl)piperazin-1-yl)phenyl)-λ^6-sulfanone] | < 50 | 
Cc1nc2cc(C(C)N3CCN(c4ncc5c(n4)CCS(=N)(=O)C5)CC3)ccc2s1 (racemic) [Example 58, 6-imino-2-(4-(1-(2-methylbenzo[d]thiazol-5-yl)ethyl)piperazin-1-yl)-5,6,7,8-tetrahydro-6λ^4-thiopyrano[4,3-d]pyrimidine 6-oxide] | < 50 | 
CC(c1ccc2c(c1)OCC2)N1CCN(c2ncc(S(C)(=N)=O)cn2)CC1 (single isomer, unassigned) [Example 15] | 1000 to 10000 | 
